pIC50: −log10 of the molar value. Converted amounts (≈) assume the structure as drawn. Values belong to the molecule of their own block, whether it stands above or below them.
Columns and labels:
PfDHODH = target: T1, PfDHODH (Plasmodium falciparum, UniProt Q08210); assay: PfDHODH DCIP dye-based enzyme assay; type: biochemical; settings: for pIC50: IC50 PfDHODH
T1 sequence (Q08210 158-569 limits assumed): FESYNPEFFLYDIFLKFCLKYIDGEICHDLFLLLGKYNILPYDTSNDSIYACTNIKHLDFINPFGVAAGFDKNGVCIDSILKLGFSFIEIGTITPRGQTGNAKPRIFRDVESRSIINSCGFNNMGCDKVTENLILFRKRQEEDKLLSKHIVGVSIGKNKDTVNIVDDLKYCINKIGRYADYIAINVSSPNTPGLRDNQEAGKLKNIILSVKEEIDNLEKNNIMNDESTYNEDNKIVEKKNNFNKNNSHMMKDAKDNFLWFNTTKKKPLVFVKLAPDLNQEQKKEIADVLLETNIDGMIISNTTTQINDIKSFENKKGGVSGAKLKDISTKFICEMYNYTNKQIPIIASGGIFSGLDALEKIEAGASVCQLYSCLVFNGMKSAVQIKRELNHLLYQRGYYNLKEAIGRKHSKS

human albumin = human albumin (Homo sapiens, UniProt P02768); assay: Protein binding estimated on human albumin column; type: in vitro ADME; settings: human albumin chromatographic method
[1] = In vitro metabolism in human liver microsomes; type: in vitro ADME; settings: for Eh Human: predicted hepatic extraction ratio; for microsomal CLint at 1 μM: microsomes, pH 7.4
[2] = In vitro metabolism in mouse liver microsomes; type: in vitro ADME; settings: for Eh Mouse: predicted hepatic extraction ratio; for microsomal CLint at 1 μM: microsomes, pH 7.4
[3] = Non-equilibrium solubility by nephelometry, pH 6.5; type: physicochemical; settings: for solubility: phosphate buffer

Sequence of human albumin (P02768 25-609): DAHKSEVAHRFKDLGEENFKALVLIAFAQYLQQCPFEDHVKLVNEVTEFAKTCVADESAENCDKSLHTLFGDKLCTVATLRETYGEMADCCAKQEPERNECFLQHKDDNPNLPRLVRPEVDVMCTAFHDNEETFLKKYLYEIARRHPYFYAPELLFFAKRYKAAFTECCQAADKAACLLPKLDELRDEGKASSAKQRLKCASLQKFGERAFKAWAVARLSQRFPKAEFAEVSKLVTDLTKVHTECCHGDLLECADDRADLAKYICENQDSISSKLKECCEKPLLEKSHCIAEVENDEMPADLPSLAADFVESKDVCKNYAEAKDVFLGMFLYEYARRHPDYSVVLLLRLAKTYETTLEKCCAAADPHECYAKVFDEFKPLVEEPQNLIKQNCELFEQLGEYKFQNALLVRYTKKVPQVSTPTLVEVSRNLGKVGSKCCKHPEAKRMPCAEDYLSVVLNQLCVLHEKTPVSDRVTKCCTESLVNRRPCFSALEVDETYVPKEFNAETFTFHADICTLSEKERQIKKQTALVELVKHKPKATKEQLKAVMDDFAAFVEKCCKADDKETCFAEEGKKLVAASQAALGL

pIC50 (PfDHODH): < 4.00
Structure (SMILES): Cc1cc(NC2CCCCC2)n2ncnc2n1 [Compound 41, N-Cyclohexyl-5-methyl-[1,2,4]triazolo[1,5-a]pyrimidin-7-amine]

Structure (SMILES): FC(F)(F)c1ccc(Nc2cc(C(F)(F)F)nc3ncnn23)cc1 [Compound 60]
fold reduction in PfDHODH inhibitory activity versus 2 (PfDHODH; comparator 2): 4 fold

pIC50 (PfDHODH): < 4.30
Structure (SMILES): Cc1cc(Nc2ccc(NC(C)(C)C)cc2)n2ncnc2n1 [Compound 26, N^1-tert-Butyl-N^4(5-methyl-[1,2,4]triazolo[1,5-a]pyrimidin-7-yl)benzene-1,4-diamine]

Structure (SMILES): C=Cc1ccc(Nc2cc(C)nc3ncnn23)cc1 [Compound 17, N-(4-Vinylphenyl)-5-methyl-[1,2,4]triazolo[1,5-a]pyrimidin-7-amine]
Human Plasma Binding (human albumin): 84.4%
Eh Human [1]: 0.64
Eh Mouse [2]: 0.88
solubility [3]: 25 to 50 µM (≈ 6.28 to 12.6 µg/mL)

Structure (SMILES): CCc1cc(Nc2ccc(C(F)(F)F)cc2)n2ncnc2n1 [Compound 59, 5-Ethyl-N-(4-trifluoromethyl)phenyl-[1,2,4]triazolo[1,5-a]pyrimidin-7-amine]
fold reduction in PfDHODH inhibitory activity versus 2 (PfDHODH; comparator 2): 2 fold

pIC50 (PfDHODH): < 4.00
Structure (SMILES): Cc1cc(NCc2ccccc2)n2ncnc2n1 [Compound 53]

Structure (SMILES): Cc1cc(NOc2ccccc2)n2ncnc2n1 [Compound 52, N-(5-Methyl-[1,2,4]triazolo[1,5-a]pyrimidin-7-yl)-O-phenylhydroxylamine]
activity against PfDHODH (in words) (PfDHODH): inactive
pIC50 (PfDHODH): < 4.00

pIC50 (PfDHODH): < 4.00
Structure (SMILES): Cc1cc(Nc2ccc(N3CCOCC3)cc2)n2ncnc2n1 [Compound 25, N-(4-Morpholinophenyl)-5-methyl-[1,2,4]triazolo[1,5-a]pyrimidin-7-amine]

Structure (SMILES): FC(F)(F)c1ccc(Nc2cc(Cl)nc3ncnn23)cc1 [Compound 61]
fold better activity (lower IC50) against PfDHODH than 2 (PfDHODH; comparator 2): 2 fold

Eh Human [1]: 0.37/ND
aqueous solubility at pH 6.5 (in words) [3]: highly soluble
solubility [3]: 186 to 372 µM (≈ 50.1 to 100 µg/mL)
Structure (SMILES): Cc1cc(Nc2ccc3c(c2)OCO3)n2ncnc2n1 [Compound 35, N-(Benzo[d][1,3]dioxol-5yl)-5-methyl-[1,2,4]triazolo[1,5-a]pyrimidin-7-amine]

Structure (SMILES): CCCc1c(C)nc2ncnn2c1Nc1ccc(C)cc1 [Compound 64]
activity against PfDHODH (in words) (PfDHODH): complete loss in activity
pIC50 (PfDHODH): < 4.00

Structure (SMILES): Cc1cc(Nc2ccc(SC(F)(F)F)cc2)n2ncnc2n1 [Compound 20, 5-Methyl-N-(4-(trifuoromethylthio)phenyl)-[1,2,4]triazolo[1,5-a]pyrimidin-7-amine]
Human Plasma Binding (human albumin): 96.1%
microsomal CLint at 1 μM [1]: < 10 µL/min/mg
Eh Human [1]: < 0.2
microsomal CLint at 1 μM [2]: > 25 µL/min/mg
Eh Mouse [2]: 0.84
aqueous solubility at pH 6.5 (in words) [3]: poorly soluble
solubility [3]: 5 to 10 µM (≈ 1.63 to 3.25 µg/mL)

Structure (SMILES): C#Cc1ccc(Nc2cc(C)nc3ncnn23)cc1 [Compound 18, N-(4-Ethynylphenyl)-5-methyl-[1,2,4]triazolo[1,5-a]pyrimidin-7-amine]
Human Plasma Binding (human albumin): 81.8%
microsomal CLint at 1 μM [1]: < 10 µL/min/mg
Eh Human [1]: 0.31
microsomal CLint at 1 μM [2]: > 25 µL/min/mg
Eh Mouse [2]: 0.54
solubility [3]: 100 to 200 µM (≈ 24.9 to 49.9 µg/mL)

Structure (SMILES): Cc1cc(NCc2ccc(C(F)(F)F)cc2)n2ncnc2n1 [Compound 55]
activity against PfDHODH (in words) (PfDHODH): inactive
pIC50 (PfDHODH): < 4.00

pIC50 (PfDHODH): < 4.00
Structure (SMILES): Cc1cc(NC2CCCCCC2)n2ncnc2n1 [Compound 42, N-Cycloheptyl-5-methyl-[1,2,4]triazolo[1,5-a]pyrimidin-7-amine]

Structure (SMILES): CCCc1ccc(Nc2cc(C)nc3ncnn23)cc1 [Compound 8, N-(4-Propylphenyl)-5-methyl-[1,2,4]triazolo[1,5-a]pyrimidin-7-amine]
Human Plasma Binding (human albumin): 93.5%
Eh Human [1]: 0.66/ND
aqueous solubility at pH 6.5 (in words) [3]: highly soluble
solubility [3]: 187 to 374 µM (≈ 50 to 100 µg/mL)

microsomal CLint at 1 μM [1]: < 10 µL/min/mg
Eh Human [1]: < 0.2
microsomal CLint at 1 μM [2]: > 25 µL/min/mg
Eh Mouse [2]: 0.61
aqueous solubility at pH 6.5 (in words) [3]: highly soluble
Structure (SMILES): Cc1cc(NC2CCc3ccccc3C2)n2ncnc2n1 (stereo not drawn) [Compound 49, 5-Methyl-N-(1,2,3,4-tetrahydronaphthalen-2-yl)-[1,2,4]triazolo[1,5-a]pyrimidin-7-amine]

Structure (SMILES): Cc1cc(Nc2ccc(N(C)C)cc2)n2ncnc2n1 [Compound 23, N^1,N^1-Dimethyl-N^4-(5-methyl-[1,2,4]triazolo[1,5-a]pyrimidin-7-yl)benzene-1,4-diamine]
fold less potent / increase of PfDHODH IC50 over 14 (PfDHODH; comparator 14): 4 fold
Eh Human [1]: 0.4
Eh Mouse [2]: 0.91
solubility [3]: 93 to 186 µM (≈ 25 to 49.9 µg/mL)

Structure (SMILES): CCc1ccc(Nc2cc(C)nc3ncnn23)cc1 [Compound 7, N-(4-Ethylphenyl)-5-methyl-[1,2,4]triazolo[1,5-a]pyrimidin-7-amine]
Human Plasma Binding (human albumin): 88.0%
Eh Human [1]: 0.77/ND
solubility [3]: 25 to 50 µM (≈ 6.33 to 12.7 µg/mL)

pIC50 (PfDHODH): < 4.30
Structure (SMILES): CCCCCCCCc1ccc(Nc2cc(C)nc3ncnn23)cc1 [Compound 13, N-(4-Octylphenyl)-5-methyl-[1,2,4]triazolo[1,5-a]pyrimidin-7-amine]

pIC50 (PfDHODH): < 4.00
Structure (SMILES): Cc1cc(NC2CCC2)n2ncnc2n1 [Compound 39, N-Cyclobutyl-5-methyl-[1,2,4]triazolo[1,5-a]pyrimidin-7-amine]

Structure (SMILES): Cc1cc(Nc2ccc(Cl)c(F)c2)n2ncnc2n1 [Compound 30, N-(4-Chloro-3-fluorophenyl)-5-methyl-[1,2,4]triazolo[1,5-a]pyrimidin-7-amine]
fold decrease in PfDHODH IC50 over the 4-Cl alone (PfDHODH; comparator 4-Cl-Ph (DSM89)): 3 fold

Structure (SMILES): Cc1cc(Nc2ccc3c(c2)CCC3)n2ncnc2n1 [Compound 34, N-(2,3-dihydro1H-inden-5-yl)-5-methyl-[1,2,4]triazolo[1,5-a]pyrimidin-7-amine]
Human Plasma Binding (human albumin): 92.5%
Eh Human [1]: 0.81
Eh Mouse [2]: 0.94
solubility [3]: 47 to 94 µM (≈ 12.5 to 24.9 µg/mL)

Structure (SMILES): Cc1cc(Nc2ccc(C3CC3)cc2)n2ncnc2n1 [Compound 16, N-(4-Cyclopropylphenyl)-5-methyl-[1,2,4]triazolo[1,5-a]pyrimidin-7-amine]
Human Plasma Binding (human albumin): 86.8%
Eh Human [1]: 0.75
Eh Mouse [2]: 0.93
aqueous solubility at pH 6.5 (in words) [3]: highly soluble

Structure (SMILES): CCCCc1ccc(Nc2cc(C)nc3ncnn23)cc1 [Compound 9, N-(4-Butylphenyl)-5-methyl-[1,2,4]triazolo[1,5-a]pyrimidin-7-amine]
Human Plasma Binding (human albumin): 96.7%
Eh Human [1]: 0.67/ND
aqueous solubility at pH 6.5 (in words) [3]: poorly soluble
solubility [3]: 11 to 22 µM (≈ 3.09 to 6.19 µg/mL)

pIC50 (PfDHODH): < 4.00
Structure (SMILES): Cc1cc(NC2CCCCCCC2)n2ncnc2n1 [Compound 43, N-Cyclooctyl-5-methyl-[1,2,4]triazolo[1,5-a]pyrimidin-7-amine]

Structure (SMILES): Cc1cc(NCCc2ccccc2)n2ncnc2n1 [Compound 56, 5-Methyl-N-phenethyl-[1,2,4]triazolo[1,5-a]pyrimidin-7-amine]
activity against PfDHODH (in words) (PfDHODH): mid-micromolar range activity

pIC50 (PfDHODH): < 4.00
Structure (SMILES): Cc1cc(NC2CCCC2)n2ncnc2n1 [Compound 40, N-Cyclopentyl-5-methyl-[1,2,4]triazolo[1,5-a]pyrimidin-7-amine]

Structure (SMILES): Cc1cc(NCc2ccc(F)cc2)n2ncnc2n1 [Compound 54]
activity against PfDHODH (in words) (PfDHODH): inactive
pIC50 (PfDHODH): < 4.00

Structure (SMILES): Cc1cc(NCCCc2ccccc2)n2ncnc2n1 [Compound 57]
activity against PfDHODH (in words) (PfDHODH): mid-micromolar range activity

pIC50 (PfDHODH): < 4.00
Structure (SMILES): Cc1cc(NC2CC2)n2ncnc2n1 [Compound 38, N-Cyclopropyl-5-methyl-[1,2,4]triazolo[1,5-a]pyrimidin-7-amine]
